Test results published in PubChem BioAssay AID2060329 (Molecular Pharmacology Branch, DTP, NCI, 2025).

System: MCF7 multi-cell spheroids with HUVEC/MSC, viability
Test: Anticancer human tumor MCF7 cell line growth inhibition [IpAb];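 also: spheroids exposed to agents for seven days before readout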
Conditions: for IC50: curve of first compound; for viability, T/C: stronger effect = lower value
How it was run: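 Combinations with ipatasertib or abemaciclib were tested on tumour spheroids holding HUVEC (25%) and MSC (15%) alongside 60% malignant cells. Top concentration was at or near clinical Cmax (10 microM if undefined), descending in half-log steps.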

In the case of `C=CC(=O)N1CCN(c2nc(=O)n(-c3c(C)ccnc3C(C)C)c3nc(-c4c(O)cccc4F)c(F)cc23)C(C)C1` (stereo not given) + CCN1CCN(Cc2ccc(Nc3ncc(F)c(-c4cc(F)c5nc(C)n(C(C)C)c5c4)n3)nc2)CC1, the IC50 (second compound 0.01 µM) is reported as > 10 µM, the IC50 (second compound 0.0316 µM) is reported as > 10 µM and the IC50 (second compound 0.1 µM) is reported as > 10 µM. The IC50 (second compound 0.316 µM) was > 10 µM, the IC50 (second compound 1 µM) was 6.47 µM and the viability, T/C (second compound 0.01 µM, first compound 0.0316 µM) was 97.6%. The viability, T/C (second compound 0.01 µM, first compound 0.1 µM) was 95.6%, the viability, T/C (second compound 0.01 µM, first compound 0.316 µM) was 112% and the viability, T/C (second compound 0.01 µM, first compound 1 µM) was 98.4%. It also gave a viability, T/C (second compound 0.01 µM, first compound 3.16 µM) of 91.4%, a viability, T/C (second compound 0.01 µM, first compound 10 µM) of 58.8% and a viability, T/C (second compound 0.0316 µM, first compound 0.0316 µM) of 98.5%. The viability, T/C (second compound 0.0316 µM, first compound 0.1 µM) was 94.7%, the viability, T/C (second compound 0.0316 µM, first compound 0.316 µM) was 102% and the viability, T/C (second compound 0.0316 µM, first compound 1 µM) was 110%. It also gave a viability, T/C (second compound 0.0316 µM, first compound 3.16 µM) of 76.9%, a viability, T/C (second compound 0.0316 µM, first compound 10 µM) of 48.3% and a viability, T/C (second compound 0.1 µM, first compound 0.0316 µM) of 117%. For the same compound, the viability, T/C (second compound 0.1 µM, first compound 0.1 µM) was 107%, the viability, T/C (second compound 0.1 µM, first compound 0.316 µM) was 118% and the viability, T/C (second compound 0.1 µM, first compound 1 µM) was 101%. For the same compound, the viability, T/C (second compound 0.1 µM, first compound 3.16 µM) was 84.4%, the viability, T/C (second compound 0.1 µM, first compound 10 µM) was 59.4% and the viability, T/C (second compound 0.316 µM, first compound 0.0316 µM) was 106%. For the same compound, the viability, T/C (second compound 0.316 µM, first compound 0.1 µM) was 106%, the viability, T/C (second compound 0.316 µM, first compound 0.316 µM) was 111% and the viability, T/C (second compound 0.316 µM, first compound 1 µM) was 94.8%. For the same compound, the viability, T/C (second compound 0.316 µM, first compound 3.16 µM) was 70.7%, the viability, T/C (second compound 0.316 µM, first compound 10 µM) was 50.9% and the viability, T/C (second compound 1 µM, first compound 0.0316 µM) was 100%. It also gave a viability, T/C (second compound 1 µM, first compound 0.1 µM) of 101%, a viability, T/C (second compound 1 µM, first compound 0.316 µM) of 96.4% and a viability, T/C (second compound 1 µM, first compound 1 µM) of 78.9%. It also gave a viability, T/C (second compound 1 µM, first compound 3.16 µM) of 62% and a viability, T/C (second compound 1 µM, first compound 10 µM) of 43.1%.
`CC(=O)c1c(C)c2cnc(Nc3ccc(N4CCNCC4)cn3)nc2n(C2CCCC2)c1=O` + CCN1CCN(Cc2ccc(Nc3ncc(F)c(-c4cc(F)c5nc(C)n(C(C)C)c5c4)n3)nc2)CC1 was tested, and the IC50 (second compound 0.01 µM) was > 0.3 µM, the IC50 (second compound 0.0316 µM) was > 0.3 µM and the IC50 (second compound 0.1 µM) was > 0.3 µM. The IC50 (second compound 0.316 µM) was > 0.3 µM, the IC50 (second compound 1 µM) was > 0.3 µM and the viability, T/C (second compound 0.01 µM, first compound 0.000949 µM) was 93.2%. The viability, T/C (second compound 0.01 µM, first compound 0.003 µM) was 99.5%, the viability, T/C (second compound 0.01 µM, first compound 0.00949 µM) was 103% and the viability, T/C (second compound 0.01 µM, first compound 0.03 µM) was 104%. The viability, T/C (second compound 0.01 µM, first compound 0.0949 µM) was 97.4%, the viability, T/C (second compound 0.01 µM, first compound 0.3 µM) was 93.6% and the viability, T/C (second compound 0.0316 µM, first compound 0.000949 µM) was 101%. For the same compound, the viability, T/C (second compound 0.0316 µM, first compound 0.003 µM) was 95.4%, the viability, T/C (second compound 0.0316 µM, first compound 0.00949 µM) was 90.6% and the viability, T/C (second compound 0.0316 µM, first compound 0.03 µM) was 93.3%. The viability, T/C (second compound 0.0316 µM, first compound 0.0949 µM) was 93%, the viability, T/C (second compound 0.0316 µM, first compound 0.3 µM) was 94.1% and the viability, T/C (second compound 0.1 µM, first compound 0.000949 µM) was 93.9%. For the same compound, the viability, T/C (second compound 0.1 µM, first compound 0.003 µM) was 104%, the viability, T/C (second compound 0.1 µM, first compound 0.00949 µM) was 88.3% and the viability, T/C (second compound 0.1 µM, first compound 0.03 µM) was 99.3%. The viability, T/C (second compound 0.1 µM, first compound 0.0949 µM) was 92.8%, the viability, T/C (second compound 0.1 µM, first compound 0.3 µM) was 86.7% and the viability, T/C (second compound 0.316 µM, first compound 0.000949 µM) was 95%. The viability, T/C (second compound 0.316 µM, first compound 0.003 µM) was 90.9%, the viability, T/C (second compound 0.316 µM, first compound 0.00949 µM) was 96.6% and the viability, T/C (second compound 0.316 µM, first compound 0.03 µM) was 92.1%. For the same compound, the viability, T/C (second compound 0.316 µM, first compound 0.0949 µM) was 97%, the viability, T/C (second compound 0.316 µM, first compound 0.3 µM) was 85.5% and the viability, T/C (second compound 1 µM, first compound 0.000949 µM) was 82.7%. It also gave a viability, T/C (second compound 1 µM, first compound 0.003 µM) of 94.5%, a viability, T/C (second compound 1 µM, first compound 0.00949 µM) of 79.8% and a viability, T/C (second compound 1 µM, first compound 0.03 µM) of 79.8%. The viability, T/C (second compound 1 µM, first compound 0.0949 µM) was 87.1% and the viability, T/C (second compound 1 µM, first compound 0.3 µM) was 92.2%.
